According to PubChem BioAssay AID1794826:

Target: Sodium/myo-inositol cotransporter 2 (Homo sapiens) (UniProt Q8WWX8)
Experiment: sodium/myo-inositol cotransporter SLC5A11 activation – cell-based, membrane potential dye, HEK-293, SLC5A11 overexpression, dose response (AID 1794826)
Details: HEK-293 SLC5A11 OE, FLIPR membrane potential dye

Chain of Sodium/myo-inositol cotransporter 2 (Homo sapiens) (Q8WWX8 whole entry, looked up): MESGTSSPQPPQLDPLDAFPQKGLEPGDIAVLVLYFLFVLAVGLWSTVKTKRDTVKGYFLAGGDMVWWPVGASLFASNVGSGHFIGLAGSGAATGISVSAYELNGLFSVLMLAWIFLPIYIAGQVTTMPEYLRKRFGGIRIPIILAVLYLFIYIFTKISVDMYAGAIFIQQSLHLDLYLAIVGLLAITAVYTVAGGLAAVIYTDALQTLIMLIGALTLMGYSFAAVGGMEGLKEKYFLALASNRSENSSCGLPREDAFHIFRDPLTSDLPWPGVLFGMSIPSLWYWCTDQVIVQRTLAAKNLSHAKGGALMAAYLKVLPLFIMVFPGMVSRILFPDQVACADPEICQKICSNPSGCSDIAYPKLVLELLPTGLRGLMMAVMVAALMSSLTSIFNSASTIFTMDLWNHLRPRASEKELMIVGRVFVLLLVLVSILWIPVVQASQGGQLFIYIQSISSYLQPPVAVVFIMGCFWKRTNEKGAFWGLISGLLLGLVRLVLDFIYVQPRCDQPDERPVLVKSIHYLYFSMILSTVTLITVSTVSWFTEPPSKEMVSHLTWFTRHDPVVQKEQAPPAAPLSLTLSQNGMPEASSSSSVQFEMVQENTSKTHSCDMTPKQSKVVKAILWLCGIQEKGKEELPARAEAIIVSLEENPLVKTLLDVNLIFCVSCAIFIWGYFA

`OC1C(O)C(O)C(O)C(O)C1O` (stereo unspecified) was tested, and the EC50 was 104 µM.
